These results are taken from patent US10501479B2, “Benzenesulfonyl-asymmetric ureas and medical uses thereof” (HELSINN HEALTHCARE SA, priority 2016, dated 2019).

The target of series [1] is T1, recombinant human ghrelin receptor (HEK293/GRLN) (Homo sapiens, UniProt Q92847).
T1 construct: expressed in transfected cells
Briefly: Ghrelin inverse agonist potency (EC50) with IP-1 (IP-One HTRF) assay. It is filed as cell-based. Conditions: IP-1 assay. The essentials:
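IP-1 accumulation was measured by HTRF (IP1-d2/Tb-cryptate, 620/665 nm read after 1 hour at room temperature) following 1 hour of compound treatment at 37° C. Cells were HEK293 stably expressing human ghrelin receptor, plated a day earlier on Matrigel. Inverse agonist potency was reported as EC50.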
A general note: Time-resolved FRET reads energy transfer from a long-lived donor to a nearby acceptor.

Series [2] deals with T2, GHSR-1a (HEK293/GHSR1a cell line) (Homo sapiens, UniProt Q92847).
T2 construct: expressed in transfected cells; host or cells: HEK293/GHSR1a cell line
T2 sequence (Q92847 whole entry): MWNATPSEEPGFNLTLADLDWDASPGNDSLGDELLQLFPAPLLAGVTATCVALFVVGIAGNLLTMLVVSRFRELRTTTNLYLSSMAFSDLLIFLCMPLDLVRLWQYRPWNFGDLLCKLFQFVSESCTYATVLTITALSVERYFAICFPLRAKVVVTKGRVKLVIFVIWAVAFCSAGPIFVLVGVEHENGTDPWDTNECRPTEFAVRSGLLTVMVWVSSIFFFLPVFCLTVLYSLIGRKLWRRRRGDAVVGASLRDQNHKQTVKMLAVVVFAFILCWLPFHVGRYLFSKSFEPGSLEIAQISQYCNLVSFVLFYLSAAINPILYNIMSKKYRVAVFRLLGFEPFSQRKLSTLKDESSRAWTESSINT
Briefly: Ghrelin antagonist potency (IC50) with calcium FLIPR assay, ghrelin 10 nM. It is filed as cell-based. Summed up:
(§1)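 Fluorescence read-out of intracellular calcium over 2 min. Agonist EC50 came from compound added alone at t=20 sec. Antagonist IC50 came from the reduction of the response to 10 nM ghrelin co-added with compound at t=20 sec. Both were fitted from dose-response data.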

Series [3] addresses T2, GHSR-1a (HEK293/GHSR1a cell line). Briefly: Ghrelin agonist potency (EC50) with calcium FLIPR assay. It is filed as cell-based. The essentials: as §1
The nature of series [4]: Metabolic stability in human liver microsomes. The class given is in vitro ADME. The essentials:
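Microsomes + compound, 100 mM K phosphate pH 7.4, 37 °C; 5 min preincubation, NADPH regenerating system added to start. Aliquots at 0/10/30/90 min into cold quench, spun 5000×g, supernatant diluted, LC-MS/MS.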
On the technique in general: Liver microsomes are a subcellular fraction often used to study metabolism.

Series [5] can be described thus: Metabolic stability in mouse liver microsomes. It is filed as in vitro ADME. On the procedure: Metabolic Stability Study
The metabolic stability of compounds in human, dog, rat and mouse liver microsomes was performed according the experimental conditions reported below:
• a) Prepare the following 5 stock solutions: • 1. Test compound stock solutions: dilute 10 mM solution of dextromethorphan (Dtr) in DMSO, 10 mM solution of diphenhydramine (DPA) in DMSO, 10 mM solution of omeprazole (Ome) in DMSO, 10 mM solution of verapamil (Ver) in DMSO, and 10 mM of an inverse agonist compound in DMSO to 0.25 mM solution each with acetonitrile/water (70/30). • 2. Buffer: 100 mM potassium phosphate Buffer (PBS) at pH 7.4 • 3. Liver microsomes (20 mg/ml): Thaw in 37° C. water bath quickly • 4. 2000 μL: of NADPH regenerating system (1.3 mM). Place this system on ice before use:
• 5. […] The test compound concentration in the wells, measured by LC-MS/MS, represents the concentration at time=0. • f) To determine the test compound concentration when t≠0, pre-incubate the NADPH regenerating system and the incubation plate containing the remaining 320 μL of incubation mixture (microsomes protein and test compound) for 5 minutes at 37° C. • g) Start the incubation reaction by adding 80 μL NADPH regenerating system to each well containing the remaining 320 μL incubation mixture. • h) After 10 min., 30 min., and 90 min. of incubation at 37° C., transfer 100 μL of the incubation mixture (microsomes protein, test compound, and NADPH) into the wells of a stop plate pre-filled with 300 μL of the cold quench solution. Shake well. • i) Centrifuge the stop plate at 5000×g for 10 minutes. Collect and dilute the supernatant 3 times with distilled water. Sample and analyze the test compound concentration for all the wells by LC-MS/MS. Animal PK Studies via i.v. (intravenous), p.o. (orally) and s.c. (subcutaneous) administrations

[6] abbreviates: HEK293/GRLN, read-out: Activity EC50 (ghrelin inverse agonist potency).
[7] abbreviates: HEK293/GHSR1a, ghrelin 10 nM, read-out: Activity IC50 (ghrelin antagonist potency).
Where [8] appears, read: HEK293/GHSR1a, read-out: Activity EC50/EMax: EC50 (ghrelin agonist potency).
Where [9] appears, read: ghrelin inverse agonist potency, read-out: Activity EC50.
The mark [10] stands for this setting: ghrelin antagonist potency, read-out: Activity IC50.
Where [11] appears, read: ghrelin agonist potency, read-out: Activity EC50/EMax.

Like-named read-outs stand apart in the source and are kept apart here.

T1 sequence (Q92847 whole entry): as above

As usually defined, the IC50 is the concentration needed to halve the response being measured. As for `COc1cccc(C(C)NC(=O)Nc2ccc(S(=O)(=O)Cc3ccc4c(c3)CN(C)C4)cc2)c1` (stereo not drawn) [H1327, 1-(1-(3-methoxyphenyl)ethyl)-3-(4-(((2-methylisoindolin-5-yl)methyl)sulfonyl)phenyl)urea], the EC50 is 5.5 nM in series [1] (setting [6]) and more than 30000 nM in series [3] (setting [8]). Further, the 50% inhibitory concentration (IC50) in series [2] (setting [7]) came out at 5.6 nM. The “Metabolic Stability Study H = human” value in series [4] turned out to be 165.3 µL/min/mg. Besides, the “Metabolic Stability Study M = mouse” value in series [5] amounted to 144.8 µL/min/mg.
For `COc1cccc(C(C)NC(=O)Nc2ccc(S(=O)(=O)Cc3ccc4c(c3)CN(C)C4)cc2)c1` (stereo not drawn) [H1326, 1-(1-(3-methoxyphenyl)ethyl)-3-(4-(((2-methylisoindolin-5-yl)methyl)sulfonyl)phenyl)urea], in that order: 6.9 nM, more than 30000 nM, 9.8 nM, 129.5 µL/min/mg and 60.5 µL/min/mg.
For the compound `CC(NC(=O)Nc1ccc(S(=O)(=O)Cc2ccc3c(c2)CNC3)cc1-c1cc[nH]n1)c1ccccc1` (stereo not drawn) [H1519, 1-(4-((isoindolin-5-ylmethyl)sulfonyl)-2-(1H-pyrazol-3-yl)phenyl)-3-(1-phenylethyl)urea], the figures for the EC50 in series [1] (setting [9]) and in series [3] (setting [11]) were 4.6 nM and more than 30000 nM, respectively. For the same compound, the IC50 in series [2] (setting [10]) worked out at 12.1 nM. Also, the “Metabolic Stability Study H = human” value in series [4] amounted to 47.3 µL/min/mg. In series [5], the “Metabolic Stability Study M = mouse” value worked out at 169.8 µL/min/mg.
As for `CCc1ccc(Cl)c(C(C)NC(=O)Nc2ccc(S(=O)(=O)Cc3ccc4c(c3)CN(C)C4)cc2)c1` (stereo not drawn) [H1286, 1-(1-(2-chloro-5-ethylphenyl)ethyl)-3-(4-(((2-methylisoindolin-5-yl)methyl)sulfonyl)phenyl)urea], the results for the EC50 in series [1] (setting [6]) and in series [3] (setting [8]) were 24.3 nM and more than 30000 nM, respectively. For the same compound, the concentration for half-maximal inhibition (IC50) in series [2] (setting [7]) was found to be 39.5 nM. The “Metabolic Stability Study H = human” value in series [4] worked out at 251.8 µL/min/mg. The “Metabolic Stability Study M = mouse” value in series [5] worked out at 162.4 µL/min/mg.
For `C[C@H](NC(=O)Nc1ccc(S(=O)(=O)Cc2ccc3c(c2)CCN(C)CC3)cc1)c1ccccc1` [H1322, (S)-1-(4-(((3-methyl-2,3,4,5-tetrahydro-1H-benzo [d]azepin-7-yl)methyl)sulfonyl)phenyl)-3-(1-phenylethyl)urea], in that order: 81.5 nM, more than 30000 nM, 112 nM, 129 µL/min/mg and 171.1 µL/min/mg.
Turning to `COc1cc(S(=O)(=O)Cc2ccc3c(c2)CCN(C)C3)ccc1NC(=O)N(O)C(C)c1cccc(Cl)c1Cl.O=C(O)C(F)(F)F` (stereo not drawn) [H1523, 1-(1-(2,3-dichlorophenyl)ethyl)-1-hydroxy-3-(2-methoxy-4-(((2-methyl-1,2,3,4-tetrahydroisoquinolin-6-yl)methyl)sulfonyl)phenyl)urea], the values for the EC50 in series [1] (setting [9]) and in series [3] (setting [11]) were 2.1 nM and more than 30000 nM, respectively. Moreover, the 50% inhibitory concentration (IC50) in series [2] (setting [10]) was found to be 4.92 nM. The “Metabolic Stability Study H = human” value in series [4] was determined as 100.9 µL/min/mg. Also, in series [5], the “Metabolic Stability Study M = mouse” value stood at 155.5 µL/min/mg.
Regarding `COc1cc(S(=O)(=O)Cc2ccc3c(c2)CCNC3)ccc1NC(=O)N[C@@H](C)c1cccc(Cl)c1Cl` [H1482, (S)-1-(1-(2,3-dichlorophenyl)ethyl)-3-(2-methoxy-4-(((1,2,3,4-tetrahydroisoquinolin-6-yl)methyl)sulfonyl)phenyl)urea], the results for the EC50 in series [1] (setting [9]) and in series [3] (setting [11]) were 0.4 nM and more than 30000 nM, respectively. In series [2] (setting [10]), the IC50 stood at 0.282 nM. The “Metabolic Stability Study H = human” value in series [4] was less than 10 µL/min/mg. In series [5], the “Metabolic Stability Study M = mouse” value was determined as 12.5 µL/min/mg.
In the same order, the values of `COc1cc(NC(=O)N(O)C(C)c2ccccc2F)ccc1S(=O)(=O)Cc1ccc2c(c1)CN(C)C2` (stereo not drawn) [H1511, 1-(1-(2-fluorophenyl)ethyl)-1-hydroxy-3-(3-methoxy-4-(((2-methylisoindolin-5-yl)methyl)sulfonyl)phenyl)urea] are 5.2 nM, more than 30000 nM, 6.04 nM, 94.2 µL/min/mg and 44.5 µL/min/mg.
In the same order, the values of `CC(NC(=O)Nc1ccc(S(=O)(=O)Cc2ccc3c(c2)CNC3)c(C2CC2)c1)c1ccccc1` (stereo not drawn) [H1506, 1-(3-cyclopropyl-4-((isoindolin-5-ylmethyl)sulfonyl)phenyl)-3-(1-phenylethyl)urea] are 4.2 nM, more than 30000 nM, 2.28 nM, 49.2 µL/min/mg and 132.5 µL/min/mg.
With `CC(NC(=O)Nc1ccc(S(=O)(=O)Cc2ccc3c(c2)CN(C)C3)cc1)c1ccccc1Cl` (stereo not drawn) [H1267, 1-(1-(2-chlorophenyl)ethyl)-3-(4-(((2-methylisoindolin-5-yl)methyl)sulfonyl)phenyl)urea], the EC50 in series [1] (setting [6]) is 4.7 nM; in series [3] (setting [8]), more than 30000 nM. The IC50 in series [2] (setting [7]) came to 9.2 nM. The “Metabolic Stability Study H = human” value in series [4] came out at 109.8 µL/min/mg. Also, in series [5], the “Metabolic Stability Study M = mouse” value amounted to 147.8 µL/min/mg.
In the case of `C[C@@H](NC(=O)Nc1ccc(S(=O)(=O)Cc2ccc3c(c2)C(F)CN(C)C3)cc1)c1cccc(Cl)c1Cl` (stereo partly drawn) [H1538, 1-((R)-1-(2,3-dichlorophenyl)ethyl)-3-(4-(((4-fluoro-2-methyl-1,2,3,4-tetrahydroisoquinolin-6-yl)methyl)sulfonyl)phenyl)urea], the EC50 in series [1] (setting [9]) is 8.6 nM; in series [3] (setting [11]) it was more than 30000 nM. For the same compound, the IC50 in series [2] (setting [10]) turned out to be 172 nM. Further, the “Metabolic Stability Study H = human” value in series [4] turned out to be 237.3 µL/min/mg. In series [5], the “Metabolic Stability Study M = mouse” value is 354 µL/min/mg.
As for `COc1cc(NC(=O)N(O)C(C)c2ccccc2F)ccc1S(=O)(=O)Cc1ccc2c(c1)CNC2` (stereo not drawn) [H1510, 1-(1-(2-fluorophenyl)ethyl)-1-hydroxy-3-(4-((isoindolin-5-ylmethyl)sulfonyl)-3-methoxyphenyl)urea], the figures for the EC50 in series [1] (setting [9]) and in series [3] (setting [11]) were 3.5 nM and more than 30000 nM, respectively. The IC50 in series [2] (setting [10]) was 5.36 nM. Besides, in series [4], the “Metabolic Stability Study H = human” value was 23.8 µL/min/mg. Moreover, the “Metabolic Stability Study M = mouse” value in series [5] turned out to be 18.4 µL/min/mg.
Consider `CC(NC(=O)Nc1ccc(S(=O)(=O)Cc2ccc3c(c2F)CNC3)cc1)c1c(F)cccc1F` (stereo not drawn) [H1410], for which the EC50 in series [1] (setting [6]) was 13.2 nM; in series [3] (setting [8]), more than 30000 nM. The IC50 in series [2] (setting [7]) turned out to be 32 nM. In addition, the “Metabolic Stability Study H = human” value in series [4] worked out at 73.3 µL/min/mg. The “Metabolic Stability Study M = mouse” value in series [5] amounted to 358.6 µL/min/mg.
With `CC(NC(=O)Nc1ccc(S(=O)(=O)Cc2ccc3c(c2)CN(C)C3)cc1)c1ccc(F)cc1` (stereo not drawn) [H1268, 1-(1-(4-fluorophenyl)ethyl)-3-(4-(((2-methylisoindolin-5-yl)methyl)sulfonyl)phenyl)urea], the values for the EC50 in series [1] (setting [6]) and in series [3] (setting [8]) were 29.9 nM and more than 30000 nM, respectively. Further, in series [2] (setting [7]), the 50% inhibitory concentration (IC50) came out at 83.2 nM. The “Metabolic Stability Study H = human” value in series [4] stood at 108.7 µL/min/mg. For the same compound, the “Metabolic Stability Study M = mouse” value in series [5] is 60.5 µL/min/mg.
As for `C[C@@H](NC(=O)Nc1ccc(S(=O)(=O)Cc2ccc3c(c2F)CNC3)cc1)c1ccccc1` [H1396, (R)-1-(4-(((4-fluoroisoindolin-5-yl)methyl)sulfonyl)phenyl)-3-(1-phenylethyl)urea], the results for the EC50 in series [1] (setting [6]) and in series [3] (setting [8]) were 1.3 nM and more than 30000 nM, respectively. The half-inhibitory concentration (IC50) in series [2] (setting [7]) turned out to be 10.8 nM. Also, the “Metabolic Stability Study H = human” value in series [4] stood at 62.5 µL/min/mg. Besides, the “Metabolic Stability Study M = mouse” value in series [5] is 330.4 µL/min/mg.
